“And” between values parts separate entries of the source, which are not always exact repeats. Equal values may be shown once. Inconclusive results and toxic doses are left out.
System: CD2F1 mice, ip Colon 26 adenocarcinoma, median survival T/C
Assay: NCI In Vivo Anticancer Drug Screen. Data for tumor model Colon 26 Adenocarcinoma (intraperitoneal) in CD2F1 (CDF1) mice
Conditions: endpoint: median survival time, higher = longer survival
Experimental: The antitumor activity of compounds was measured in mice bearing transplantable tumors. Survival or tumor size were measured and the results are expressed as the measurement made in the treated group (T) divided by the measurement made in the vehicle treated control group (C). The tumor model used in this assay is Colon 26 Adenocarcinoma (intraperitoneal) in CD2F1 (CDF1) mice

[1] = dose: 25.0 mg/kg/injection, schedule: Q04DX003 (ip), vehicle: saline with Tween-80
[2] = dose: 50.0 mg/kg/injection, schedule: Q04DX003 (ip), vehicle: Klucel (hydroxypropylcellulose) (HPC)
[3] = dose: 50.0 mg/kg/injection, schedule: Q04DX003 (ip), vehicle: saline with Tween-80
[4] = dose: 100.0 mg/kg/injection, schedule: Q04DX003 (ip), vehicle: saline with Tween-80
[5] = dose: 200.0 mg/kg/injection, schedule: Q04DX003 (ip), vehicle: saline with Tween-80
[6] = dose: 400.0 mg/kg/injection, schedule: Q04DX003 (ip), vehicle: saline with Tween-80
[7] = dose: 3.12 mg/kg/injection, schedule: Q04DX003 (ip), vehicle: saline
[8] = dose: 6.25 mg/kg/injection, schedule: Q04DX003 (ip), vehicle: saline
[9] = dose: 25.0 mg/kg/injection, schedule: Q04DX003 (ip), vehicle: saline
[10] = dose: 50.0 mg/kg/injection, schedule: Q04DX003 (ip), vehicle: saline
[11] = dose: 12.5 mg/kg/injection, schedule: Q04DX003 (ip), vehicle: saline with Tween-80
[12] = dose: 12.5 mg/kg/injection, schedule: Q04DX003 (ip), vehicle: saline

## C=CCCC(=O)CCCC(=O)O[C@@H]1[C@@H]2[C@H](CC1(C)C)[C@H](O)[C@@]13O[C@@H]1[C@H](O)[C@@]1(CO1)[C@@]23C
dose: 6.25 micrograms/kg/injection, schedule: Q04DX002 (ip), vehicle: Klucel (hydroxypropylcellulose) (HPC)
  T/C: 123 % of control
dose: 25.0 micrograms/kg/injection, schedule: Q04DX002 (ip), vehicle: Klucel (hydroxypropylcellulose) (HPC)
  T/C: 119 % of control and 120 % of control
dose: 50.0 micrograms/kg/injection, schedule: Q04DX002 (ip), vehicle: Klucel (hydroxypropylcellulose) (HPC)
  T/C: 102 % of control and 98 % of control
dose: 100.0 micrograms/kg/injection, schedule: Q04DX002 (ip), vehicle: Klucel (hydroxypropylcellulose) (HPC)
  T/C: 117 % of control
dose: 200.0 micrograms/kg/injection, schedule: Q04DX002 (ip), vehicle: Klucel (hydroxypropylcellulose) (HPC)
  T/C: 120 % of control and 88 % of control
dose: 400.0 micrograms/kg/injection, schedule: Q04DX002 (ip), vehicle: Klucel (hydroxypropylcellulose) (HPC)
  T/C: 100 % of control

## Nc1n[nH]c(N)n1
dose: 40.0 mg/kg/injection, schedule: Q04DX003 (ip), vehicle: saline
  T/C: 105 % of control
dose: 80.0 mg/kg/injection, schedule: Q04DX003 (ip), vehicle: saline
  T/C: 96 % of control
dose: 100.0 mg/kg/injection, schedule: Q04DX003 (ip), vehicle: suspension in saline
  T/C: 95 % of control
dose: 160.0 mg/kg/injection, schedule: Q04DX003 (ip), vehicle: saline
  T/C: 112 % of control
dose: 200.0 mg/kg/injection, schedule: Q04DX003 (ip), vehicle: suspension in saline
  T/C: 104 % of control
dose: 320.0 mg/kg/injection, schedule: Q04DX003 (ip), vehicle: saline
  T/C: 106 % of control
dose: 400.0 mg/kg/injection, schedule: Q04DX003 (ip), vehicle: suspension in saline
  T/C: 105 % of control
dose: 800.0 mg/kg/injection, schedule: Q04DX003 (ip), vehicle: suspension in saline
  T/C: 108 % of control
dose: 1600.0 mg/kg/injection, schedule: Q04DX003 (ip), vehicle: suspension in saline
  T/C: 100 % of control

## Cc1cnc(/C=N\NC(N)=S)c2cccc(N)c12
dose: 25.0 mg/kg/injection, schedule: Q04DX003 (iv), vehicle: other
  T/C: 110 % of control
dose: 42.0 mg/kg/injection, schedule: Q04DX003 (iv), vehicle: other
  T/C: 103 % of control
dose: 68.0 mg/kg/injection, schedule: Q04DX003 (iv), vehicle: other
  T/C: 108 % of control

## OC(CBr)C(O)C(O)C(O)CBr (configuration not stated)
[1]
  T/C: 114 % of control
[2]
  T/C: 107 % of control
[3]
  T/C: 102 % of control
dose: 100.0 mg/kg/injection, schedule: Q04DX003 (ip), vehicle: Klucel (hydroxypropylcellulose) (HPC)
  T/C: 117 % of control
[4]
  T/C: 96 % of control
[5]
  T/C: 102 % of control
[6]
  T/C: 114 % of control
dose: 800.0 mg/kg/injection, schedule: Q04DX003 (ip), vehicle: Klucel (hydroxypropylcellulose) (HPC)
  T/C: 163 % of control

## C1OC1CN1CCN(CC2CO2)CC1 (configuration not stated)
[7]
  T/C: 112 % of control and 98 % of control
[8]
  T/C: 108 % of control and 120 % of control
[9]
  T/C: 167 % of control
[10]
  T/C: 175 % of control and 193 % of control

## CCCCCCCC(=O)[O][Hg][CH2]C1COC([CH2][Hg][O]C(=O)CCCCCCC)CO1 (configuration not stated)
[11]
  T/C: 95 % of control
[1]
  T/C: 90 % of control

## Oc1ccc(C2CCCCC2)cc1CN1CCCCC1
[7]
  T/C: 112 % of control
[8]
  T/C: 114 % of control
[12]
  T/C: 112 % of control
[9]
  T/C: 104 % of control
[10]
  T/C: 115 % of control
dose: 100.0 mg/kg/injection, schedule: Q04DX003 (ip), vehicle: saline
  T/C: 120 % of control

## CCC(C)C(=O)O[C@H]1C(=O)O[C@@H]2C[C@H]3C(C)=CC(=O)[C@@H](O)[C@]3(C)[C@H]3[C@@H](O)[C@H](O)[C@@]4(C)OC[C@]32[C@@H]14 (some centres not stated)
dose: 0.5 mg/kg/injection, schedule: Q04DX002 (ip), vehicle: saline
  T/C: 102 % of control
dose: 1.0 mg/kg/injection, schedule: Q04DX002 (ip), vehicle: saline
  T/C: 98 % of control
dose: 2.0 mg/kg/injection, schedule: Q04DX002 (ip), vehicle: saline
  T/C: 97 % of control

## CCOC(C)C(/C=N/NC(N)=S)=NNC(N)=S (configuration not stated)
[11]
  T/C: 98 % of control
[12]
  T/C: 104 % of control
[1]
  T/C: 98 % of control
[9]
  T/C: 93 % of control
[3]
  T/C: 100 % of control
[10]
  T/C: 113 % of control
[4]
  T/C: 99 % of control
[5]
  T/C: 97 % of control
[6]
  T/C: 97 % of control

## CC1OC(=O)C(C(C)C)NC(=O)C(C(C)C)OC(=O)C(C(C)C)NC(=O)C(C)OC(=O)C(C(C)C)NC(=O)C(C(C)C)OC(=O)C(C(C)C)NC(=O)C(C)OC(=O)C(C(C)C)NC(=O)C(C(C)C)OC(=O)C(C(C)C)NC1=O (configuration not stated)
dose: 0.75 mg/kg/injection, schedule: Q04DX003 (ip), vehicle: Klucel (hydroxypropylcellulose) (HPC)
  T/C: 181 % of control
dose: 1.5 mg/kg/injection, schedule: Q04DX003 (ip), vehicle: Klucel (hydroxypropylcellulose) (HPC)
  T/C: 186 % of control
dose: 3.0 mg/kg/injection, schedule: Q04DX003 (ip), vehicle: Klucel (hydroxypropylcellulose) (HPC)
  T/C: 200 % of control
dose: 6.0 mg/kg/injection, schedule: Q04DX003 (ip), vehicle: Klucel (hydroxypropylcellulose) (HPC)
  T/C: 193 % of control
dose: 12.0 mg/kg/injection, schedule: Q04DX003 (ip), vehicle: Klucel (hydroxypropylcellulose) (HPC)
  T/C: 165 % of control

## Oc1cc2c3c(c1)c1cc4c(cc1c[n+]3CC2)OCO4
dose: 6.25 mg/kg/injection, schedule: Q04DX003 (ip), vehicle: distilled water + Tween-80
  T/C: 118 % of control
dose: 100.0 mg/kg/injection, schedule: Q04DX003 (ip), vehicle: distilled water + Tween-80
  T/C: 118 % of control

## CCCNCCNc1ccc(NCCNCCC)c2c1C(=O)c1ccccc1C2=O
dose: 4.0 mg/kg/injection, schedule: Q01DX009 (ip), vehicle: acid diluted with saline
  T/C: 106 % of control
dose: 8.0 mg/kg/injection, schedule: Q01DX009 (ip), vehicle: acid diluted with saline
  T/C: 98 % of control
dose: 16.0 mg/kg/injection, schedule: Q01DX009 (ip), vehicle: acid diluted with saline
  T/C: 100 % of control

## CN(C1=NS(=O)(=O)N=C(N(C)c2ccccc2)O1)c1ccccc1
dose: 12.5 mg/kg/injection, schedule: Q04DX003 (ip), vehicle: Klucel (hydroxypropylcellulose) (HPC)
  T/C: 96 % of control
dose: 25.0 mg/kg/injection, schedule: Q04DX003 (ip), vehicle: Klucel (hydroxypropylcellulose) (HPC)
  T/C: 89 % of control
[2]
  T/C: 95 % of control
dose: 200.0 mg/kg/injection, schedule: Q04DX003 (ip), vehicle: Klucel (hydroxypropylcellulose) (HPC)
  T/C: 90 % of control

## Cc1ncc(CNC(=O)N(CCCl)N=O)c(N)n1
dose: 25.0 mg/kg/injection, schedule: Q04DX003 (oral), vehicle: saline
  T/C: 360 % of control
dose: 40.0 mg/kg/injection, schedule: Q04DX003 (oral), vehicle: saline
  T/C: 340 % of control
dose: 64.0 mg/kg/injection, schedule: Q04DX003 (oral), vehicle: saline
  T/C: 95 % of control

## CCC1(O)CC2CN(CCc3c([nH]c4ccccc34)C(C(=O)OC)(c3cc4c(cc3OC)N(C)C3C(O)(C(N)=O)C(O)C5(CC)C=CCN6CCC43C65)C2)C1 (configuration not stated) (tested in a mixture with another compound)
dose: 0.13 mg/kg/injection, schedule: Q04DX002 (ip), vehicle: water
  T/C: 101 % of control
dose: 0.25 mg/kg/injection, schedule: Q04DX002 (ip), vehicle: water
  T/C: 103 % of control
dose: 0.5 mg/kg/injection, schedule: Q04DX002 (ip), vehicle: water
  T/C: 104 % of control
dose: 1.0 mg/kg/injection, schedule: Q04DX002 (ip), vehicle: water
  T/C: 113 % of control
dose: 2.0 mg/kg/injection, schedule: Q04DX002 (ip), vehicle: water
  T/C: 118 % of control

## CN(Cc1cnc2nc(N)nc(N)c2n1)c1ccc(C(=O)N[C@@H](CCC(=O)O)C(=O)O)cc1
dose: 30.0 mg/kg/injection, schedule: Q07DX003 (ip), vehicle: saline
  T/C: 105 % of control
dose: 44.0 mg/kg/injection, schedule: Q07DX003 (ip), vehicle: saline
  T/C: 88 % of control
dose: 44.0 mg/kg/injection, schedule: Q07DX003 (ip), vehicle: sodium bicarbonate
  T/C: 121 % of control
dose: 63.0 mg/kg/injection, schedule: Q07DX003 (ip), vehicle: saline
  T/C: 93 % of control

## Cc1c2oc3c(C)c([N+](=O)[O-])cc(C(=O)NC4C(=O)NC(C(C)C)C(=O)N5CCCC5C(=O)N(C)CC(=O)N(C)C(C(C)C)C(=O)OC4C)c3nc-2c(C(=O)NC2C(=O)NC(C(C)C)C(=O)N3CCCC3C(=O)N(C)CC(=O)N(C)C(C(C)C)C(=O)OC2C)c(N)c1=O (configuration not stated)
dose: 500.0 micrograms/kg/injection, schedule: Q01DX001 (ip), vehicle: saline + alcohol
  T/C: 112 % of control
